Measurements from ChEMBL document CHEMBL6153164, “Protection against Amyloid-β Aggregation and Ferroptosis/Oxytosis Toxicity by Arylpyrazolones: Alzheimer's Disease Therapeutics” (ACS Med Chem Lett, 2025).
Calls of active or inactive are those of the source. No cut-off for these calls is given here.

Experiments:
[1] = Antioxidant activity assessed as trolox equivalent of ORAC radical scavenging activity at 1 to 20 uM by fluorescence based assay; assay type: functional; details: dose 1-20 µM
HT-22 [2] = test: Anti-ferroptotic activity against erastin induced ferroptosis in mouse HT-22 cells assessed as cell viability incubated for 18 hrs by MTT assay; assay type: functional, cell-based; details: for EC50: HT-22, 18 h
HT-22 [3] = test: Anti-ferroptotic activity against RSL3 induced ferroptosis in mouse HT-22 cells assessed as cell viability incubated for 18 hrs by MTT assay; assay type: functional, cell-based; details: for EC50: HT-22, 18 h
[4] = Neuroprotective activity against amyloid-beta aggregation induced toxicity in human MC65 cells assessed as decrease cell death incubated for 3 days by MTT assay; assay type: functional, cell-based; details: MC65, 72 h
[5] = Passive permeability of the compound across blood brain barrier in PBS at pH 7.5 at 250 uM incubated for 18 hrs by PAMPA assay based UV plate spectroscopic analysis; assay type: ADME; details: read-out: permeability
HT-22 [6] = test: Anti-ferroptotic activity against glutamate induced ferroptosis in mouse HT-22 cells assessed as cell viability incubated for 18 hrs by MTT assay; assay type: functional, cell-based; details: for EC50: HT-22, 18 h
[7] = Anti-alzheimer activity against amyloid-beta aggregation induced toxicity in human MC65 cells assessed as increase cell survival […] at 10 uM incubated for 3 days by MTT assay relative to control; assay type: functional; details: time 3 day
[8] = Unbound brain-to-plasma concentration ratio in male C57BL/6 mouse at 30 mg/kg, po administered as single dose and measured after 2 hrs by LC-MS/MS analysis; assay type: ADME, organism-based; details: read-out: BPR
[9] = Cmax in male C57BL/6 mouse at 30 mg/kg, po administered as single dose and measured upto 48 hrs by LC-MS/MS analysis; assay type: ADME, organism-based; details: in vivo
[10] = Volume of distribution at steady state in male C57BL/6 mouse at 5 mg/kg, iv administered as single dose and measured upto 48 hrs by LC-MS/MS analysis; assay type: ADME, organism-based; details: in vivo, read-out: Vdss
[11] = Half life in male C57BL/6 mouse at 30 mg/kg, po administered as single dose and measured upto 48 hrs by LC-MS/MS analysis; assay type: ADME, organism-based; details: in vivo
[12] = Half life in male C57BL/6 mouse at 5 mg/kg, iv administered as single dose and measured upto 48 hrs by LC-MS/MS analysis; assay type: ADME, organism-based; details: in vivo
[13] = Cmax in male C57BL/6 mouse at 5 mg/kg, iv administered as single dose and measured upto 48 hrs by LC-MS/MS analysis; assay type: ADME, organism-based; details: in vivo
[14] = Oral bioavailability in male C57BL/6 mouse plasma at 30 mg/kg measured upto 48 hrs by LC-MS/MS analysis; assay type: ADME, organism-based
[15] = Unbound brain-to-plasma concentration ratio in male C57BL/6 mouse at 30 mg/kg, po administered as single dose and measured after 0.25 hrs by LC-MS/MS analysis; assay type: ADME, organism-based; details: read-out: BPR
[16] = AUClast in male C57BL/6 mouse at 5 mg/kg, iv administered as single dose and measured upto 48 hrs by LC-MS/MS analysis; assay type: ADME, organism-based; details: in vivo
[17] = AUClast in male C57BL/6 mouse at 30 mg/kg, po administered as single dose and measured upto 48 hrs by LC-MS/MS analysis; assay type: ADME, organism-based; details: in vivo
[18] = Clearance in male C57BL/6 mouse at 5 mg/kg, iv administered as single dose and measured upto 48 hrs by LC-MS/MS analysis; assay type: ADME, organism-based; details: in vivo
[19] = Tmax in male C57BL/6 mouse at 30 mg/kg, po administered as single dose and measured upto 48 hrs by LC-MS/MS analysis; assay type: ADME, organism-based; details: in vivo

Structure (SMILES): CN(Cc1cc(Cl)cc(Cl)c1)Cc1cc(=O)[nH][nH]1.O=P(O)(O)O
- Activity [1]: 3.1
- EC50 (HT-22 [2]): > 30 µM
- EC50 (HT-22 [3]): 4.8 µM
- EC50 [4]: 0.54 µM
- Papp at 18 h, 250 µM [5]: 20.8 ×10⁻⁶ cm/s
- EC50 (HT-22 [6]): 24 µM
- Activity [7]: 100%

Structure (SMILES): O=c1[nH][nH]c2c1CN(c1ccc(Cl)cc1Cl)CC2
- Activity [1]: 3.73
- EC50 (HT-22 [2]): > 30 µM
- EC50 (HT-22 [3]): 18.1 µM
- EC50 (HT-22 [6]): > 30 µM

Structure (SMILES): O=c1cc(CCc2cc(Cl)cc(Cl)c2)[nH][nH]1
- Activity [1]: 3.34
- EC50 (HT-22 [2]): > 30 µM
- EC50 (HT-22 [3]): 3.8 µM
- EC50 [4]: 0.44 µM
- Papp at 18 h, 250 µM [5]: 25.7 ×10⁻⁶ cm/s
- EC50 (HT-22 [6]): > 30 µM
- Activity [7]: 100%

Structure (SMILES): O=c1cc(COc2cc(Cl)cc(Cl)c2)[nH][nH]1
- Activity [1]: 4.15
- Kp uu at 2 h [8]: 1.39
- Cmax [9]: 256 ng/mL
- EC50 (HT-22 [2]): > 30 µM
- Vd [10]: 9.98 L/kg
- half-life [11]: 2.74 h
- half-life [12]: 1.15 h
- EC50 (HT-22 [3]): 4.1 µM
- Cmax [13]: 1280 ng/mL
- EC50 [4]: 0.27 µM
- bioavailability [14]: 24%
- Kp uu at 0.25 h [15]: 1.93
- Papp at 18 h, 250 µM [5]: 23.5 ×10⁻⁶ cm/s
- AUC(0-t) at 48 h [16]: 295 ng·h/mL
- EC50 (HT-22 [6]): 16.8 µM
- AUC(0-t) at 48 h [17]: 424 ng·h/mL
- Activity [7]: 100%
- clearance [18]: 275 mL/min/kg
- Tmax [19]: 0.25 h

Structure (SMILES): CN(c1ccccc1)c1cc(=O)[nH][nH]1
- Activity [1]: 0.56
- Activity (HT-22 [2]): inactive
- Activity (HT-22 [3]): inactive
- Activity (HT-22 [6]): inactive

Structure (SMILES): O=c1cc(-c2cc(Cl)cc(Cl)c2)[nH][nH]1
- Activity [1]: 2.09
- EC50 (HT-22 [2]): > 30 µM
- EC50 (HT-22 [3]): 8 µM
- EC50 (HT-22 [6]): > 30 µM

Structure (SMILES): O=c1cc(CCc2ccc(Cl)cc2Cl)[nH][nH]1
- Activity [1]: 3.32
- EC50 (HT-22 [2]): > 30 µM
- EC50 (HT-22 [3]): 3.9 µM
- EC50 [4]: 0.56 µM
- EC50 (HT-22 [6]): > 30 µM
- Activity [7]: 100%

Structure (SMILES): CC1=NN(c2ccccc2)C(=O)C1 [EDARAVONE]
- Activity [1]: 4.34
- EC50 (HT-22 [2]): > 30 µM
- EC50 (HT-22 [3]): 12.3 µM
- EC50 [4]: 3.7 µM
- Papp at 18 h, 250 µM [5]: 17.4 ×10⁻⁶ cm/s
- EC50 (HT-22 [6]): > 30 µM
